The subject of the first assay is HEK293. Briefly: Induction of autophagy in human HEK293 cells expressing GFP-LC3B-RFP assessed as decrease in fluorescence at 10 uM after 24 hrs by multilabel counter method. The format is functional. Set-up: scale not given: the % may be the effect or the level left.
`N#C[C@@H]1CCCN1C(=O)[C@@H]1CCCN1C(=O)CCCc1ccccc1`: the Activity was 89%.

A further assay deals with Prolyl endopeptidase (Sus scrofa, UniProt P23687). Briefly: Inhibition of recombinant porcine PREP expressed in Escherichia coli using Suc-Gly-Pro-AMC as substrate preincubated for 30 mins followed by substrate addition and measured after 60 mins by multilabel counter analysis.
Chain of Prolyl endopeptidase (P23687 whole entry): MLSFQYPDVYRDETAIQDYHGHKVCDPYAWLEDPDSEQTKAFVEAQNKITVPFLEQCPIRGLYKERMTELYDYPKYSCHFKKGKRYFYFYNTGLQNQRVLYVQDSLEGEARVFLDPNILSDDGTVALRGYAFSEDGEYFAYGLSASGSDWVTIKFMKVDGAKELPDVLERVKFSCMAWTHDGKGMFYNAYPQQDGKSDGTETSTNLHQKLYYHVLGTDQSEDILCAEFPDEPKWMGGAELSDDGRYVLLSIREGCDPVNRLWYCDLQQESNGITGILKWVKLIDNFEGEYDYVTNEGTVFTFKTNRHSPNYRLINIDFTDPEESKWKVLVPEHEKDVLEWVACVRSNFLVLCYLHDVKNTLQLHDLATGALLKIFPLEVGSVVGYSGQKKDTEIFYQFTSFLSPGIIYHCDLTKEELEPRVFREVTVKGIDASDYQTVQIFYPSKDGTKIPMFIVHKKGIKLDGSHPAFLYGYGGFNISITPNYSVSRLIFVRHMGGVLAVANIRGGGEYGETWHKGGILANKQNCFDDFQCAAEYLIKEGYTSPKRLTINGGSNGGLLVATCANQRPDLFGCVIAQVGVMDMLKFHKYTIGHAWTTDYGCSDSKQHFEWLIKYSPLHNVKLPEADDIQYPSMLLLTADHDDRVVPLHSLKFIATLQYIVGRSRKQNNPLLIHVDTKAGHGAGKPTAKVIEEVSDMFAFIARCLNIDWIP
Consider `CN(CC(=O)N1CCC[C@H]1c1nnn[nH]1)C(=O)CCc1ccccc1`, for which the IC50 (commonly the concentration at which inhibition is half-maximal) was found to be 62 µM. `O=C(CCCc1ccccc1)N1CCC[C@H]1C(=O)N1CCC[C@H]1c1ccn[nH]1`: the IC50 amounted to 70 µM. For the molecule `O=C(CCCc1ccccc1)N1CCC[C@H]1C(=O)N1CCC[C@H]1c1nnc[nH]1`, the IC50 stood at 29 µM. For the molecule `Cn1nnc([C@@H]2CCCN2C(=O)[C@@H]2CCCN2C(=O)CCCc2ccccc2)n1`, the IC50 came out at 12 µM.

For the molecule `C[C@H](NC(=O)CCCc1ccccc1)C(=O)N1CCC[C@H]1c1nnc[nH]1`, the IC50 was 55 µM.

(Values after ChEMBL document CHEMBL4823326 (ACS Med Chem Lett, 2021).)
